Results from PubChem BioAssay AID1259407 (Chemical Carcinogenesis Research Information System (CCRIS), 2018).
Calls of active or inactive are those of the source. The rule behind the calls is not given here.

Test system: CCRIS mutagenicity, Ames/micronucleus/aberration tests
Test: CCRIS mutagenicity studies
[1] = Test System: AMES SALMONELLA TYPHIMURIUM, Strain/Indicator: TA100, Metabolic Activation: NONE, Method: STANDARD PLATE
[2] = Test System: AMES SALMONELLA TYPHIMURIUM, Strain/Indicator: TA1535, Metabolic Activation: NONE, Method: STANDARD PLATE
[3] = Test System: AMES SALMONELLA TYPHIMURIUM, Strain/Indicator: TA98, Metabolic Activation: NONE, Method: PREINCUBATION
[4] = Test System: AMES SALMONELLA TYPHIMURIUM, Strain/Indicator: TA100, Metabolic Activation: NONE, Method: PREINCUBATION

Measured: mutagenic call

O[C@H]1c2ccccc2-c2cc3c(ccc4ccccc43)nc2[C@@H]1O
active: Test System: CHINESE HAMSTER V-79, Strain/Indicator: V-79/6-THIOGUANINE, Metabolic Activation: GUINEA PIG, LIVER, S-9, 3-METHYLCHOLANTHRENE active; positive
inactive: Test System: AMES SALMONELLA TYPHIMURIUM, Strain/Indicator: TA98, Metabolic Activation: GUINEA PIG, LIVER, S-9, 3-METHYLCHOLANTHRENE, Method: STANDARD PLATE inactive; negative | Test System: AMES SALMONELLA TYPHIMURIUM, Strain/Indicator: TA100, Metabolic Activation: GUINEA PIG, LIVER, S-9, 3-METHYLCHOLANTHRENE, Method: STANDARD PLATE inactive; negative

O=[N+]([O-])c1ccc2c(CCO)c[nH]c2c1
active: Test System: AMES SALMONELLA TYPHIMURIUM, Strain/Indicator: TA97A, Metabolic Activation: NONE, Method: STANDARD PLATE active; positive | Test System: AMES SALMONELLA TYPHIMURIUM, Strain/Indicator: TA98(1,8-DNP6), Metabolic Activation: NONE, Method: STANDARD PLATE active; positive | Test System: AMES SALMONELLA TYPHIMURIUM, Strain/Indicator: TA98(NR), Metabolic Activation: NONE, Method: STANDARD PLATE active; positive | Test System: AMES SALMONELLA TYPHIMURIUM, Strain/Indicator: TA98, Metabolic Activation: NONE, Method: SEM (1.1) 100-2000 NM (TEST MATERIAL SOLVENT: DMSO) 100-2000 N 2000 N active; positive | [1] active; positive | Test System: AMES SALMONELLA TYPHIMURIUM, Strain/Indicator: TA1537, Metabolic Activation: NONE, Method: STANDARD PLATE active; positive
inactive: [2] inactive; negative

O=CC1CO1 (stereo not given)
active: [1] active; positive | [2] active; positive | Test System: E. COLI, Strain/Indicator: WP2 UVRA, Metabolic Activation: HAMSTER, LIVER, S-9, AROCLOR 1254, Method: PREINCUBATION active; positive | Test System: E. COLI, Strain/Indicator: WP2 UVRA, Metabolic Activation: HAMSTER, LIVER, S-9, AROCLOR 1254, Method: STANDARD PLATE active; positive | Test System: E. COLI, Strain/Indicator: WP2 UVRA, Metabolic Activation: HAMSTER, LIVER, S-9, Method: PREINCUBATION active; positive | Test System: E. COLI, Strain/Indicator: WP2 UVRA, Metabolic Activation: HAMSTER, LIVER, S-9, Method: STANDARD PLATE active; positive | Test System: E. COLI, Strain/Indicator: WP2 UVRA, Metabolic Activation: MOUSE, LIVER, S-9, AROCLOR 1254, Method: PREINCUBATION active; positive | Test System: E. COLI, Strain/Indicator: WP2 UVRA, Metabolic Activation: MOUSE, LIVER, S-9, AROCLOR 1254, Method: STANDARD PLATE active; positive | Test System: E. COLI, Strain/Indicator: WP2 UVRA, Metabolic Activation: MOUSE, LIVER, S-9, Method: PREINCUBATION active; positive | Test System: E. COLI, Strain/Indicator: WP2 UVRA, Metabolic Activation: MOUSE, LIVER, S-9, Method: STANDARD PLATE active; positive | Test System: E. COLI, Strain/Indicator: WP2 UVRA, Metabolic Activation: NONE, Method: PREINCUBATION active; positive | Test System: E. COLI, Strain/Indicator: WP2 UVRA, Metabolic Activation: NONE, Method: STANDARD PLATE active; positive | Test System: E. COLI, Strain/Indicator: WP2 UVRA, Metabolic Activation: RAT, LIVER, S-9, AROCLOR 1254, Method: PREINCUBATION active; positive | Test System: E. COLI, Strain/Indicator: WP2 UVRA, Metabolic Activation: RAT, LIVER, S-9, AROCLOR 1254, Method: STANDARD PLATE active; positive | Test System: E. COLI, Strain/Indicator: WP2 UVRA, Metabolic Activation: RAT, LIVER, S-9, Method: PREINCUBATION active; positive | Test System: E. COLI, Strain/Indicator: WP2 UVRA, Metabolic Activation: RAT, LIVER, S-9, Method: STANDARD PLATE active; positive | Test System: UDS HUMAN FIBROBLASTS, Strain/Indicator: THY INCORP (NON-S-PHASE), Metabolic Activation: NONE, Method: LIQUID SCINTILLATION COUNTING active; positive

Cc1c2ccccc2cc2ccc3ccccc3c12
active: Test System: AMES SALMONELLA TYPHIMURIUM, Strain/Indicator: TA98, Method: STANDARD PLATE active; positive | Test System: AMES SALMONELLA TYPHIMURIUM, Strain/Indicator: TA100, Metabolic Activation: RAT, INTACT HEPATOCYTES, AROCLOR 1254, Method: PREINCUBATION active; positive | Test System: AMES SALMONELLA TYPHIMURIUM, Strain/Indicator: TA100, Metabolic Activation: RAT, LIVER, S-9, PHENOBARBITAL, Method: STANDARD PLATE active; positive | Test System: AMES SALMONELLA TYPHIMURIUM, Strain/Indicator: TA100, Metabolic Activation: RAT, NADPH-FORTIFIED HOMOGENIZED HEPATOCYTES, AROCLOR 1254, Method: PREINCUBATION active; positive | Test System: AMES SALMONELLA TYPHIMURIUM, Strain/Indicator: TA100, Metabolic Activation: RAT, SONICATED HEPATOCYTES, AROCLOR 1254, Method: PREINCUBATION active; positive | Test System: AMES SALMONELLA TYPHIMURIUM, Strain/Indicator: TA100, Method: STANDARD PLATE active; positive

Cc1ccc(NN=NCc2ccccc2)cc1
active: [3] active; positive | Test System: AMES SALMONELLA TYPHIMURIUM, Strain/Indicator: TA98, Metabolic Activation: RAT, LIVER, S-9, PCB, Method: PREINCUBATION active; positive | [4] active; positive | Test System: AMES SALMONELLA TYPHIMURIUM, Strain/Indicator: TA100, Metabolic Activation: RAT, LIVER, S-9, PCB, Method: PREINCUBATION active; positive

CC(F)(Cl)Cl
active: End Point: IN VIVO MICRONUCLEUS, Test System: BONE MARROW, Species: RAT, Strain/Sex: SPRAGUE-DAWLEY/MALE, Route: INHALATION active; positive
inactive: End Point: IN VIVO MICRONUCLEUS, Test System: BONE MARROW, Species: RAT, Strain/Sex: SPRAGUE-DAWLEY/FEMALE, Route: INHALATION inactive; negative

N#[N+]c1ccc([O-])cc1
active: [3] active; positive | Test System: AMES SALMONELLA TYPHIMURIUM, Strain/Indicator: TA98, Metabolic Activation: RAT, LIVER, S-9, POLYCHLORINATED BIPHENYLS, Method: PREINCUBATION active; positive | [4] active; positive | Test System: AMES SALMONELLA TYPHIMURIUM, Strain/Indicator: TA100, Metabolic Activation: RAT, LIVER, S-9, POLYCHLORINATED BIPHENYLS, Method: PREINCUBATION active; positive

ClCc1ccc2c3c(cccc13)-c1ccccc1-2
active: Test System: AMES SALMONELLA TYPHIMURIUM, Strain/Indicator: TA98, Metabolic Activation: NONE, Method: STANDARD PLATE active; positive | [1] active; positive
